Experiments:
Assay type in all cases: physicochemical
[1] = Lubiprostone-excipient contact stability study (Example 1A); details: excipient:lubiprostone approx 50:50; 55° C. 10 days; HPLC
Description: Test samples were prepared for the study in approximately 50:50 proportion using various excipients and lubiprostone drug. These prepared mixtures were then placed on accelerated stress stability conditions at 55° C. for 10 days. After 10 days, these samples were analyzed by a suitable HPLC method to determine assay (the amount of remaining Lubiprostone) and impurities generated due to degradation of lubiprostone.

[2] = Lubiprostone-excipient contact stability study, mechanical mixing of powder (Example 1C); details: for % of the initial: 55° C. 10 d, remaining lubiprostone by HPLC
Description: Test samples were prepared by direct (mechanical) mixing of various excipients and lubiprostone drug in approximately 50:50 and 99:1 ratios. The mechanical mixing of lubiprostone and excipients was conduct by admixing them using a conventional mortar. The prepared mixtures were then placed under accelerated stress stability conditions at 55° C. for 10 days. After 10 days, these samples were analyzed by HPLC to determine the amount of remaining lubiprostone and impurities generated as a result of the degradation of lubiprostone.

[3] = Lubiprostone-excipient contact stability study, solid solution (Example 1B); details: for % of the initial: 55° C. 10 d, remaining lubiprostone by HPLC
Description: Additional test samples were prepared for the study by admixing various excipients and lubiprostone drug in ratios of about 50:50 and about 99:1. Solid solutions were prepared by mixing lubiprostone/MeCN and Excipient/MeCN, combining these mixtures and then removing the solvent by evaporation. The prepared mixtures were then placed under accelerated stress stability conditions at 55° C. for 10 days. After 10 days, these samples were analyzed by HPLC method to determine the amount of remaining lubiprostone and impurities generated as a result of the degradation of lubiprostone.

[4] = Mechanical mixing of powder 50:50
[5] = Mechanical mixing of powder 99:1

- Assay (% of initial) [1]: 42.3%
- Total Impurities [1]: 59.0%
- 55° C. 10 d Impurities [2, 4]: 24.5
- % of the initial [2, 4]: 55.6%
- 55° C. 10 d Impurities [2, 5]: 24.5
- % of the initial [2, 5]: 55.6%
- 55° C. 10 d Impurities ([3]; Solid solution 50:50): 33.5
- % of the initial ([3]; Solid solution 50:50): 44.4%
- 55° C. 10 d Impurities ([3]; Solid solution 99:1): 35.5
- % of the initial ([3]; Solid solution 99:1): 44.4%
Compound: CCCCC(F)(F)[C@@]1(O)CC[C@H]2[C@@H](CC(=O)[C@@H]2CCCCCCC(=O)O)O1 [Lubiprostone, (−)-7-[(2R,4aR,5R,7aR)-2-(1,1-difluoropentyl)-2-hydroxy-6-oxooctahydrocyclopenta[b]pyran-5-yl]heptanoic acid]
